Test results published in US12083231B2, “Starch-based double-loaded functional nano particle as well as preparation method and application” (Hefei University of Technology, priority 2021, dated 2024).

Test: Retention rate of quercetin and anthocyanin during storage for 14 days
Assay type: physicochemical
Details: after being stored for 14 days; nanoparticle with EHT:carboxymethyl dextrin mass ratio 1:1
Text: It can be seen from FIG. 8 that quercetin and anthocyanin alone are easy to degrade in the environment, and only about 20% of quercetin and anthocyanin can be retained after being stored for 14 days. […] The significant increase of retention rate proves that the starch-based double-loaded functional colloid nanoparticle can effectively protect quercetin and anthocyanin from being degraded.

Row | retention rate of quercetin | retention rate of anthocyanin | Molecule
1 | about 20% | – | O=c1c(O)c(-c2ccc(O)c(O)c2)oc2cc(O)cc(O)c12 [quercetin]
2 | – | about 20% | anthocyanin
